In patent publication US20030153546A1, “Microbicidal effect of prophyrines in darkness” (priority 1999, published 2003):

Columns and labels:
Assay type in all cases: cell-based
E. coli cells [1] = assay: Recovery of porphyrine bonded to E. coli cells after dark incubation and washing steps; conditions: 1 μM porphyrine, 5 minutes
Description: (§1) For this, porphyrines of different chemical structures (see drawing) were incubated with E. coli and S. aureus cells in the dark. The porphyrines were added to aqueous suspension comprising an amount of bacterial cells of 10^8 per ml and stored for 5 minutes in the dark. Finally, the amount of porphyrine bonded to the cells was measured depending on the number of washing […] (the washing was carried out by means of physiological solutions) by chemical extraction followed spectrophotofluorimetric determination.

E. coli cells [2] = assay: Inhibition of growth of E. coli cells after 5-minute incubation in the dark (optical density at 650 nm); conditions: growth at 37° C
Description: as §1
(§2) The survival rate of the bacterial cells after incubation with the different porphyrines was determined by diluting 0.3 ml of the suspension with 2.7 ml of the culture medium and recording the optical density at 650 nm depending on the time. The suspensions were kept at 37° C. The percentual inhibition of growth was calculated with reference to a suspension of comparative cells which had been treated with the same method, however had not been added to the porphyrine.

S. aureus cells [3] = assay: Inhibition of growth of S. aureus cells after 5-minute incubation in the dark (optical density at 650 nm); conditions: growth at 37° C
Description: as §1, §2

S. aureus cells [4] = assay: Recovery of porphyrine bonded to S. aureus cells after dark incubation and washing steps; conditions: 1 μM porphyrine, 5 minutes in the dark
Description: as §1

## CCCCCCCCCCCCCC[n+]1ccc(-c2c3nc(c(-c4cc[n+](C)cc4)c4ccc([nH]4)c(-c4cc[n+](C)cc4)c4nc(c(-c5cc[n+](C)cc5)c5ccc2[nH]5)C=C4)C=C3)cc1 [mono-C14]
E. coli cells [1]
  recovery (nmol/mg protein) 1 washing step: 3.06 ± 0.25 nmol/mg protein
  recovery (nmol/mg protein) 3 washing steps: 2.28 ± 0.04 nmol/mg protein
  % bonded after 3 washing steps: 42.4%
  recovery (nmol/mg protein) no washing: 5.38 ± 0.06 nmol/mg protein
E. coli cells [2]; 1 μM porphyrine
  inhibition of growth (%) E. coli: 46.1%
E. coli cells [2]; 10 μM porphyrine
  inhibition of growth (%) E. coli: 100%
S. aureus cells [3]; 1 μM porphyrine
  inhibition of growth (%) S. aureus: 69.1%
S. aureus cells [3]; 10 μM porphyrine
  inhibition of growth (%) S. aureus: 92.4%
S. aureus cells [4]
  recovery (nmol/mg protein) 1 washing step: 5.53 ± 0.74 nmol/mg protein
  recovery (nmol/mg protein) 3 washing steps: 4.32 ± 0.13 nmol/mg protein
  % bonded after 3 washing steps: 65.9%
  recovery (nmol/mg protein) no washing: 6.56 ± 0.40 nmol/mg protein

## C[n+]1ccc(-c2c3nc(c(-c4cc[n+](C)cc4)c4ccc([nH]4)c(-c4cc[n+](Cc5ccccc5)cc4)c4nc(c(-c5cc[n+](C)cc5)c5ccc2[nH]5)C=C4)C=C3)cc1 [mono-benzyl]
E. coli cells [1]
  recovery (nmol/mg protein) 1 washing step: 1.67 ± 0.06 nmol/mg protein
  recovery (nmol/mg protein) 3 washing steps: 0.71 ± 0.08 nmol/mg protein
  % bonded after 3 washing steps: 28.2%
  recovery (nmol/mg protein) no washing: 2.52 ± 0.13 nmol/mg protein
E. coli cells [2]; 1 μM porphyrine
  inhibition of growth (%) E. coli: 0.1%
E. coli cells [2]; 10 μM porphyrine
  inhibition of growth (%) E. coli: 13%
S. aureus cells [3]; 1 μM porphyrine
  inhibition of growth (%) S. aureus: 1.6%
S. aureus cells [3]; 10 μM porphyrine
  inhibition of growth (%) S. aureus: 25%

## CCCCCC[n+]1ccc(-c2c3nc(c(-c4cc[n+](CCCCCC)cc4)c4ccc([nH]4)c(-c4cc[n+](CCCCCC)cc4)c4nc(c(-c5cc[n+](CCCCCC)cc5)c5ccc2[nH]5)C=C4)C=C3)cc1 [tetra-C6]
E. coli cells [1]
  recovery (nmol/mg protein) 1 washing step: 1.39 ± 0.23 nmol/mg protein
  recovery (nmol/mg protein) 3 washing steps: 0.94 ± 0.24 nmol/mg protein
  % bonded after 3 washing steps: 57.0%
  recovery (nmol/mg protein) no washing: 1.65 ± 0.17 nmol/mg protein

## C[n+]1ccc(-c2c3nc(c(-c4cc[n+](C)cc4)c4ccc([nH]4)c(-c4cc[n+](C)cc4)c4nc(c(-c5cc[n+](C)cc5)c5ccc2[nH]5)C=C4)C=C3)cc1 [T4MPyP]
E. coli cells [1]
  recovery (nmol/mg protein) 1 washing step: 0.19 ± 0.04 nmol/mg protein
  recovery (nmol/mg protein) 3 washing steps: 0.05 ± 0.01 nmol/mg protein
  % bonded after 3 washing steps: 11.4%
  recovery (nmol/mg protein) no washing: 0.44 ± 0.04 nmol/mg protein
E. coli cells [2]; 1 μM porphyrine
  inhibition of growth (%) E. coli: 0.6%
E. coli cells [2]; 10 μM porphyrine
  inhibition of growth (%) E. coli: 3.1%
S. aureus cells [3]; 1 μM porphyrine
  inhibition of growth (%) S. aureus: 3.1%
S. aureus cells [3]; 10 μM porphyrine
  inhibition of growth (%) S. aureus: 7.8%
S. aureus cells [4]
  recovery (nmol/mg protein) 1 washing step: 0.10 ± 0.01 nmol/mg protein
  recovery (nmol/mg protein) 3 washing steps: 0.11 ± 0.01 nmol/mg protein
  % bonded after 3 washing steps: 16.2%
  recovery (nmol/mg protein) no washing: 0.68 ± 0.05 nmol/mg protein

## CCCCCCCCCCCCCCCCCCCCCC[n+]1ccc(-c2c3nc(c(-c4cc[n+](C)cc4)c4ccc([nH]4)c(-c4cc[n+](C)cc4)c4nc(c(-c5cc[n+](C)cc5)c5ccc2[nH]5)C=C4)C=C3)cc1 [mono-C22]
E. coli cells [1]
  recovery (nmol/mg protein) 1 washing step: 2.60 ± 0.04 nmol/mg protein
  recovery (nmol/mg protein) 3 washing steps: 3.04 ± 0.34 nmol/mg protein
  % bonded after 3 washing steps: 59.4%
  recovery (nmol/mg protein) no washing: 5.12 ± 0.46 nmol/mg protein
E. coli cells [2]; 1 μM porphyrine
  inhibition of growth (%) E. coli: 19.1%
E. coli cells [2]; 10 μM porphyrine
  inhibition of growth (%) E. coli: 16.8%
S. aureus cells [3]; 1 μM porphyrine
  inhibition of growth (%) S. aureus: 39.9%
S. aureus cells [3]; 10 μM porphyrine
  inhibition of growth (%) S. aureus: 70.1%
S. aureus cells [4]
  recovery (nmol/mg protein) 1 washing step: 5.65 ± 0.13 nmol/mg protein
  recovery (nmol/mg protein) 3 washing steps: 4.95 ± 0.30 nmol/mg protein
  % bonded after 3 washing steps: 77.5%
  recovery (nmol/mg protein) no washing: 6.39 ± 0.40 nmol/mg protein

## CCCCCC[n+]1ccc(-c2c3nc(c(-c4cc[n+](C)cc4)c4ccc([nH]4)c(-c4cc[n+](C)cc4)c4nc(c(-c5cc[n+](C)cc5)c5ccc2[nH]5)C=C4)C=C3)cc1 [mono-C6]
E. coli cells [1]
  recovery (nmol/mg protein) 1 washing step: 1.01 ± 0.12 nmol/mg protein
  recovery (nmol/mg protein) 3 washing steps: 0.39 ± 0.12 nmol/mg protein
  % bonded after 3 washing steps: 24.7%
  recovery (nmol/mg protein) no washing: 1.58 ± 0.28 nmol/mg protein
E. coli cells [2]; 1 μM porphyrine
  inhibition of growth (%) E. coli: 0.5%
E. coli cells [2]; 10 μM porphyrine
  inhibition of growth (%) E. coli: 14.6%
S. aureus cells [3]; 1 μM porphyrine
  inhibition of growth (%) S. aureus: 5.1%
S. aureus cells [3]; 10 μM porphyrine
  inhibition of growth (%) S. aureus: 8.8%
S. aureus cells [4]
  recovery (nmol/mg protein) 1 washing step: 2.05 ± 0.11 nmol/mg protein
  recovery (nmol/mg protein) 3 washing steps: 1.02 ± 0.12 nmol/mg protein
  % bonded after 3 washing steps: 33.6%
  recovery (nmol/mg protein) no washing: 3.04 ± 0.05 nmol/mg protein

## CCCCCCCCCCCCCCCCCC[n+]1ccc(-c2c3nc(c(-c4cc[n+](C)cc4)c4ccc([nH]4)c(-c4cc[n+](C)cc4)c4nc(c(-c5cc[n+](C)cc5)c5ccc2[nH]5)C=C4)C=C3)cc1 [mono-C18]
E. coli cells [1]
  recovery (nmol/mg protein) 1 washing step: 4.08 ± 0.62 nmol/mg protein
  recovery (nmol/mg protein) 3 washing steps: 2.54 ± 0.38 nmol/mg protein
  % bonded after 3 washing steps: 60.5%
  recovery (nmol/mg protein) no washing: 4.20 ± 0.16 nmol/mg protein
E. coli cells [2]; 1 μM porphyrine
  inhibition of growth (%) E. coli: 2.7%
E. coli cells [2]; 10 μM porphyrine
  inhibition of growth (%) E. coli: 85.7%
S. aureus cells [3]; 1 μM porphyrine
  inhibition of growth (%) S. aureus: 39.8%
S. aureus cells [3]; 10 μM porphyrine
  inhibition of growth (%) S. aureus: 96.6%

## CCCCCCCCCC[n+]1ccc(-c2c3nc(c(-c4cc[n+](C)cc4)c4ccc([nH]4)c(-c4cc[n+](C)cc4)c4nc(c(-c5cc[n+](C)cc5)c5ccc2[nH]5)C=C4)C=C3)cc1 [mono-C10]
E. coli cells [1]
  recovery (nmol/mg protein) 1 washing step: 2.78 ± 0.53 nmol/mg protein
  recovery (nmol/mg protein) 3 washing steps: 1.48 ± 0.38 nmol/mg protein
  % bonded after 3 washing steps: 40.4%
  recovery (nmol/mg protein) no washing: 3.66 ± 0.071 nmol/mg protein
E. coli cells [2]; 1 μM porphyrine
  inhibition of growth (%) E. coli: 4.6%
E. coli cells [2]; 10 μM porphyrine
  inhibition of growth (%) E. coli: 10.7%
S. aureus cells [3]; 1 μM porphyrine
  inhibition of growth (%) S. aureus: 27.8%
S. aureus cells [3]; 10 μM porphyrine
  inhibition of growth (%) S. aureus: 50%
S. aureus cells [4]
  recovery (nmol/mg protein) 1 washing step: 5.70 ± 0.54 nmol/mg protein
  recovery (nmol/mg protein) 3 washing steps: 4.09 ± 0.13 nmol/mg protein
  % bonded after 3 washing steps: 57.4%
  recovery (nmol/mg protein) no washing: 7.13 ± 0.25 nmol/mg protein
